Assay results taken from patent US10221173B2, “Chemical compounds” (AstraZeneca AB, priority 2017, dated 2019).
≈ marks a conversion by molar mass, not a printed value.

Tests used:
[1] = Thermodynamic solubility (shake-flask); format: physicochemical; details: aqueous phosphate buffer, 25 °C, pH 7.4, aqueous buffer, thermodynamic from solid, phosphate buffer pH 7.4, 24 hours
Procedure: The thermodynamic solubility of a research compound is measured under standard conditions. It is a shake-flask approach that uses 10 mM DMSO solutions which are supplied from the Compound Managements liquid store and is a high throughput method. The dried compounds are equilibrated in an aqueous phosphate buffer (pH 7.4) for 24 hours at 25° C., the portion with the dissolved compound is then separated from the remains. The solutions are analyzed and quantified using UPLC/MS/MS, QC-samples are incorporated in each assay-run to ensure the quality of the assay.

[2] = molecular target: recombinant human Estrogen Receptor alpha ligand binding domain (ER alpha-LBD (GST)) (Homo sapiens (Human), UniProt P03372); test: ERα binding assay (LanthaScreen TR-FRET competition)
recombinant human Estrogen Receptor alpha ligand binding domain (ER alpha-LBD (GST)), sequence (P03372 307-554): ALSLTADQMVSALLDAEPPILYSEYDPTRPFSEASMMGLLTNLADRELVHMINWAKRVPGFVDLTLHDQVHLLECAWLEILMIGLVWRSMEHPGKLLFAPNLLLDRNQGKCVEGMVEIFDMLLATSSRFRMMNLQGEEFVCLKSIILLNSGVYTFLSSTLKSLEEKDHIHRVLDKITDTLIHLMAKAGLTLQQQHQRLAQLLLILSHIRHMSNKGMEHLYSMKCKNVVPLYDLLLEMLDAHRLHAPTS
Procedure: The ability of compounds to bind to isolated Estrogen Receptor Alpha Ligand binding domain (ER alpha—LBD (GST)) was assessed in competition assays using a LanthaScreen Time-Resolved Fluorescence Resonance Energy Transfer (TR-FRET) detection end-point. For the LanthaScreen TR-FRET endpoint, a suitable fluorophore (Fluormone ES2, ThermoFisher, Product code P2645) and recombinant human Estrogen Receptor alpha ligand binding domain, residues 307-554 (expressed and purified in-house) were used to measure compound binding. The assay principle is that ER alpha-LBD (GST) is added to a fluorescent ligand to form a receptor/fluorophore complex. A terbium-labelled anti-GST antibody (Product code PV3551) is used to indirectly label the receptor by binding to its GST tag, and competitive binding is detected by a test compound's ability to displace the fluorescent ligand, resulting in a loss of TR-FRET signal between the Tb-anti-GST antibody and the tracer. The assay was performed as follows with all reagent additions carried out using the Beckman Coulter BioRAPTR FRD microfluidic workstation: • 1. Acoustic dispense 120 nL of the test compound into a black low volume 384 well assay plates. • 2. Prepare 1× ER alpha-LBD/Tb-antiGST Ab in ES2 screening buffer and incubate for 15 minutes. • 3. […] Cover the assay plate to protect the reagents from light and evaporation, and incubate at room temperature for 4 hours. • 5. Excite at 337 nm and measure the fluorescent emission signal of each well at 490 nm and 520 nm using the BMG PheraSTAR.
TR-FRET dose response data obtained with each compound was exported into a suitable software package (such as Origin or Genedata) to perform curve fitting analysis. Competitive ER alpha binding was expressed as an IC50 value.

[3] = Log D (shake flask, 1-octanol/aqueous buffer); format: physicochemical; details: 1-octanol/aqueous buffer, pH 7.4, pH 7.4
[4] = molecular target: Estrogen Receptor (ERα) in MCF-7 cells (Homo sapiens (Human), UniProt P03372); test: MCF-7 ER down-regulation assay (immuno-fluorescence); format: cell-based
Estrogen Receptor (ERα) in MCF-7 cells, sequence (P03372 whole entry): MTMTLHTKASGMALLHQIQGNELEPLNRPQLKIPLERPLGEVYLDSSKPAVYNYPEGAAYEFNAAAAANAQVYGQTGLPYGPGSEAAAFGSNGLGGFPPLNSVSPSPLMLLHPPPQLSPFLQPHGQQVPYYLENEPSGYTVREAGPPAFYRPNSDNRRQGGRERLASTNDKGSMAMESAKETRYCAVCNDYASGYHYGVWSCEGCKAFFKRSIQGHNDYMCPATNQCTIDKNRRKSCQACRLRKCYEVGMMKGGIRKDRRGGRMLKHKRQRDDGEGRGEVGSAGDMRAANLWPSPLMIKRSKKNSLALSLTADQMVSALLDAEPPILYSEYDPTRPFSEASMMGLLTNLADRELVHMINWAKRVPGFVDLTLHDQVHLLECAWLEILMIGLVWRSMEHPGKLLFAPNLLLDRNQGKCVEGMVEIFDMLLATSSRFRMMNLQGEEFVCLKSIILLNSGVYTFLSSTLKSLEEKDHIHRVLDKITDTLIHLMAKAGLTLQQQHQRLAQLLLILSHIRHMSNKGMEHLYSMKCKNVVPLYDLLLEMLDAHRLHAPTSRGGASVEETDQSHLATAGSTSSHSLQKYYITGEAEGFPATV
Procedure: The ability of compounds to down-regulate Estrogen Receptor (ER) numbers was assessed in a cell based immuno-fluorescence assay using the MCF-7 human ductal carcinoma breast cell line. MCF-7 cells were revived directly from a cryovial (approx 5×10^6 cells) in Assay Medium (phenol red free Dulbecco's Modified Eagle's medium (DMEM); Sigma D5921) containing 2 mM L-Glutamine and 5% (v/v) Charcoal/Dextran treated foetal calf serum. Cells were syringed once using a sterile 18G×1.5 inch (1.2×40 mm) broad gauge needle and cell density was measured using a Coulter Counter (Beckman). […] Following cell seeding, plates were incubated overnight at 37° C., 5% CO2 (Liconic carousel incubator). Test data was generated using the LabCyte Echomodel 555 compound reformatter which is part of an automated workcell (Integrated Echo 2 workcell). Compound stock solutions (10 mM) of the test compounds were used to generate a 384 well compound dosing plate (Labcyte P-05525-CV1). […] 40 μL of DMSO added to wells in row P on the source plate allowed for DMSO normalisation across the dose range. To dose the control wells 40 μL of DMSO was added to row O1 and 40 μL of 100 μM fulvestrant in DMSO was added to row O3 on the compound source plate.
The Echo uses acoustic technology to perform direct microplate-to-microplate transfers of DMSO compound solutions to assay plates. The system can be programmed to transfer volumes as low as 2.5 nL in multiple increments between microplates and in so doing generates a serial dilution of compound in the assay plate which is then back-filled to normalise the DMSO concentration across the dilution range. […] The fixing method described above was carried out on the Integrated Echo 2 workcell. Immunostaining was performed using an automated AutoElisa workcell. The PBS/Proclin was aspirated from all wells and the cells permeabilised with 40 μL PBS containing 0.5% Tween™ 20 (v/v) for 1 hour at room temperature. The plates were washed three times in 250 μL of PBS/0.05% (v/v) Tween 20 with Proclin (PBST with a Biocide preservative) and then 20 μL of ERα (SP1) Rabbit monoclonal antibody (Thermofisher) 1:1000 in PBS/Tween™/3% (w/v) Bovine Serum Albumin was added. The plates were incubated overnight at 4° C. (Liconic carousel incubator) and then washed three times in 250 μL of PBS/0.05% (v/v) Tween™ 20 with Proclin (PBST). The plates were then incubated with 20 μL/well of a goat anti-rabbit IgG AlexaFluor 594 or goat anti-rabbit AlexaFluor 488 antibody (Molecular Probes) with Hoechst at 1:5000 in PBS/Tween™/3% (w/v) Bovine Serum Albumin for 1 hour at room temperature. The plates were then washed three times in 250 μL of PBS/0.05% (v/v) Tween™ 20 with Proclin (PBST with a Biocide preservative). 20 μL of PBS was added to each well and the plates covered with a black plate seal and stored at 4° C. before being read. […] The mean total intensity was normalized for cell number giving the total intensity per cell. The data was exported into a suitable software package (such as Origin) to perform curve fitting analysis.

[5] = Human plasma protein binding (equilibrium dialysis); format: in vitro ADME
Procedure: The automated equilibrium dialysis assay in human plasma uses the RED (Rapid Equilibrium Dialysis) Device and sample handling. The assay generally runs over two to three days including delivery of results. After dialysis for 18 hours, plasma and buffer samples are prepared for analysis by liquid chromatography and mass spectrometry. Samples are generally tested in singlicates and quantified by LC/MSMS by using a 7-point calibration curve in plasma. The compounds are pooled together in plasma pools up to 10 compounds. Three reference compounds are used in each run, Propranolol, Metoprolol and Warfarin. Warfarin is used as a control in each pool and Propranolol and Metoprolol are placed randomly in each run. An in-house Excel macro is used for preparation of files for the robot and the mass spectrometer and is also used for the calculations of fraction unbound (fu %) in plasma.

Compound	solubility at 24 h [1]	IC50 [2]	logD [3]	IC50 [4]	Human plasma protein binding (% free) [5]
COc1ccc(OC[C@H](C)NCCCF)cc1[C@@H]1c2[nH]c3ccccc3c2C[C@@H](C)N1CC(F)(F)CO [Example 49, 2,2-difluoro-3-((1R,3R)-1-(5-((S)-2-((3-fluoropropyl)amino)propoxy)-2-methoxyphenyl)-3-methyl-1,3,4,9-tetrahydro-2H-pyrido[3,4-b]indol-2-yl)propan-1-ol]	335 µM (≈ 174 µg/mL)	1.2 nM	2.8	0.15 nM	
Cc1c(N(C)CCN(C)CCCF)ccc(F)c1[C@@H]1c2[nH]c3ccccc3c2C[C@@H](C)N1C[C@H](C)C(=O)O [Example 147, (S)-3-((1R,3R)-1-(6-fluoro-3-((2-((3-fluoropropyl)(methyl)amino)ethyl)(methyl)amino)-2-methylphenyl)-3-methyl-1,3,4,9-tetrahydro-2H-pyrido[3,4-b]indol-2-yl)-2-methylpropanoic acid]		51 nM			19 % free
Cc1c(OCCNCCCF)cncc1[C@@H]1c2[nH]c3ccccc3c2C[C@@H](C)N1CC(F)(F)F [Example 38, 3-fluoro-N-(2-((4-methyl-5-((1R,3R)-3-methyl-2-(2,2,2-trifluoroethyl)-2,3,4,9-tetrahydro-1H-pyrido[3,4-b]indol-1-yl)pyridin-3-yl)oxy)ethyl)propan-1-amine]				0.19 nM	0.91 % free
COc1c(OCCNCCCF)cccc1[C@@H]1c2[nH]c3ccccc3c2C[C@@H](C)N1CC1(F)COC1 [Example 5, 3-fluoro-N-(2-(3-((1R,3R)-2-((3-fluorooxetan-3-yl)methyl)-3-methyl-2,3,4,9-tetrahydro-1H-pyrido[3,4-b]indol-1-yl)-2-methoxyphenoxy)ethyl)propan-1-amine]	357 µM (≈ 178 µg/mL)	45 nM		25 nM	
Cc1c(OCCNCCC(F)F)ccc(F)c1[C@@H]1c2[nH]c3ccc(F)cc3c2C[C@@H](C)N1C[C@@H](C)C(=O)O [Example 162, (R)-3-((1R,3R)-1-(3-(2-((3,3-difluoropropyl)amino)ethoxy)-6-fluoro-2-methylphenyl)-6-fluoro-3-methyl-1,3,4,9-tetrahydro-2H-pyrido[3,4-b]indol-2-yl)-2-methylpropanoic acid]	> 1000 µM		1.8		27 % free
C[C@@H]1Cc2c([nH]c3ccccc23)[C@@H](c2cc(OCCNCCCF)ncn2)N1CC(F)(F)F [Example 113, 3-fluoro-N-(2-((6-((1S,3R)-3-methyl-2-(2,2,2-trifluoroethyl)-2,3,4,9-tetrahydro-1H-pyrido[3,4-b]indol-1-yl)pyrimidin-4-yl)oxy)ethyl)propan-1-amine]	< 1.6 µM	17 nM	4.1	> 300 nM	
C[C@@H]1Cc2c([nH]c3ccccc23)[C@@H](c2c(F)ccc(OCCNCCCF)c2Cl)N1CC(C)(C)C(=O)O [Example 131, 3-((1R,3R)-1-(2-chloro-6-fluoro-3-(2-((3-fluoropropyl)amino)ethoxy)phenyl)-3-methyl-1,3,4,9-tetrahydro-2H-pyrido[3,4-b]indol-2-yl)-2,2-dimethylpropanoic acid]	> 1000 µM		1.2		32 % free
Cc1ccc([C@@H]2c3[nH]c4ccccc4c3C[C@@H](C)N2CC(F)(F)F)cc1OCCNCCCF [Example 19, 3-fluoro-N-(2-(2-methyl-5-((1R,3R)-3-methyl-2-(2,2,2-trifluoroethyl)-2,3,4,9-tetrahydro-1H-pyrido[3,4-b]indol-1-yl)phenoxy)ethyl)propan-1-amine]	5 µM (≈ 2.39 µg/mL)				
C[C@@H]1Cc2c([nH]c3ccccc23)[C@@H](c2cc(F)cc(OCCNCCCF)c2)N1CC(F)(F)F [Example 73, 3-fluoro-N-(2-(3-fluoro-5-((1R,3R)-3-methyl-2-(2,2,2-trifluoroethyl)-2,3,4,9-tetrahydro-1H-pyrido[3,4-b]indol-1-yl)phenoxy)ethyl)propan-1-amine]	7 µM (≈ 3.37 µg/mL)				
